Test system: gene expression in D04 melanoma cells
Experiment: RNA-Seq differential expression analysis (DESeq2)
Assay type: cell-based, human
Protocol: Total RNA was isolated using the RNeasy mini Kit (QIAGEN) following the manufacturer's protocol. Quality check for extracted RNA was done using 2100 Bioanalyzer (Agilent Technologies, USA) or Tapestation System (Agilent Technologies, USA). […] For samples used for identification of MAPK-responsive lncRNAs, paired-end, 101-bp sequencing was performed by Centrillion Genomic Services (Centrillion Biosciences, USA) on an Illumina HiSeq 2000. For DE gene analysis of ASO-transfected D04 samples, paired-end, 2×150-bp sequencing was performed by Genewiz (USA) on a Illumina HiSeq.
Sequence reads were aligned to the human genome (hg19) using TopHat (Version 2.0.11).
Differential expression (DE) analysis was done using DESeq2. Differentially expressed genes were defined by more than 1.5-fold changes (log 2 >0.58 or <−0.58) in expression with FDR<0.05. GO term analysis was done using DAVID Functional Annotation Clustering analysis.
To examine the biomolecular changes upon TRASH-inhibition in melanoma, D04 cells were treated with TRASH-ASOs (SEQ ID NO:15) and Control-ASOs and RNA was extracted and used for RNA-Seq. […] These GO terms consisted of genes encoding growth factors, tyrosine kinases, G protein coupled receptor subunits, and collagen subunits. Scatter plot diagram showing differential gene expression after TRASH-ASO treatment compared to Control-ASO treatment. (cut-off for significance was adjusted p-value <0.05). Data was obtained from RNA-Seq of D04 melanoma cells, treatment period was three days. (FIG. 5c)

[1] = D04 cells, three days, vs Control-ASO, cut off >1.5-fold change and FDR <0.05

## GACTGGAGATAATTAA (gapmer, pattern not given here) [SEQ ID NO: 15, GapmeR ASO targeting AC004540.4 (TRASH), exon region of both isoforms; used for in vitro experiments]
CATSPERG (ENSG00000099338)
  log2FoldChange: 1.259
CCDC187 (ENSG00000260220)
  log2FoldChange: 2.881
CD274 (ENSG00000120217)
  log2FoldChange: 1.226
CD300C (ENSG00000167850)
  log2FoldChange: 2.474
CDH4 (ENSG00000179242)
  log2FoldChange: 1.668
CELF2 (ENSG00000048740)
  log2FoldChange: −0.6612
CFI (ENSG00000205403)
  log2FoldChange: −0.6803
CHCHD10 (ENSG00000250479)
  log2FoldChange: −0.6153
CHL1 (ENSG00000134121)
  log2FoldChange: −0.6927
CHMP1B2P (ENSG00000278530)
  log2FoldChange: −0.6924
CIITA (ENSG00000179583)
  log2FoldChange: −0.6508
CLDN3 (ENSG00000165215)
  log2FoldChange: 1.402
CNTN1 (ENSG00000018236)
  log2FoldChange: −0.6103
CNTNAP3B (ENSG00000154529)
  log2FoldChange: −0.6749
COL4A5 (ENSG00000188153)
  log2FoldChange: −0.6293
COL20A1 (ENSG00000101203)
  log2FoldChange: 2.951
COL27A1 (ENSG00000196739)
  log2FoldChange: −0.6335
COLGALT2 (ENSG00000198756)
  log2FoldChange: −0.6617
CREB3L3 (ENSG00000060566)
  log2FoldChange: −0.704
CREG2 (ENSG00000175874)
  log2FoldChange: −0.6351
CSF2RB (ENSG00000100368)
  log2FoldChange: 3.672
CSMD3 (ENSG00000164796)
  log2FoldChange: −0.6823
CX3CL1 (ENSG00000006210)
  log2FoldChange: −0.5835
CYP4F32P (ENSG00000223564)
  log2FoldChange: −0.6527
CYP27A1 (ENSG00000135929)
  log2FoldChange: −0.625
[1]
  number of genes down-regulated: 574 genes
  number of genes up-regulated: 493 genes
DAW1 (ENSG00000123977)
  log2FoldChange: 2.338
DBNDD1 (ENSG00000003249)
  log2FoldChange: −0.6098
DCAF8L2 (ENSG00000189186)
  log2FoldChange: −0.6365
DCLK1 (ENSG00000133083)
  log2FoldChange: 2.001
DHRS3 (ENSG00000162496)
  log2FoldChange: −0.6585
DHRS11 (ENSG00000278535)
  log2FoldChange: −0.6876
DLEU7 (ENSG00000186047)
  log2FoldChange: 1.438
DLG4 (ENSG00000132535)
  log2FoldChange: −0.6697
DLX1 (ENSG00000144355)
  log2FoldChange: −0.6655
DMPK (ENSG00000104936)
  log2FoldChange: −0.6857
DNAH6 (ENSG00000115423)
  log2FoldChange: 1.798
DNAH11 (ENSG00000105877)
  log2FoldChange: 1.75
DOK7 (ENSG00000175920)
  log2FoldChange: 1.741
DPF3 (ENSG00000205683)
  log2FoldChange: 1.473
DRGX (ENSG00000165606)
  log2FoldChange: 1.312
DYNC1I2 (ENSG00000077380)
  log2FoldChange: −0.6997
EMILIN1 (ENSG00000138080)
  log2FoldChange: −0.6247
ENO3 (ENSG00000108515)
  log2FoldChange: −0.6026
ENOX1 (ENSG00000120658)
  log2FoldChange: −0.7019
ENOX2 (ENSG00000165675)
  log2FoldChange: −0.6448
ENSG00000006459, up-regulated list
  log2FoldChange KDM7A: 0.6751
ENSG00000006606, up-regulated list
  log2FoldChange CCL26: 0.6667
ENSG00000023445, up-regulated list
  log2FoldChange BIRC3: 0.9484
ENSG00000049759, up-regulated list
  log2FoldChange NEDD4L: 0.9476
ENSG00000050438, up-regulated list
  log2FoldChange SLC4A8: 1.215
ENSG00000052749, up-regulated list
  log2FoldChange RRP12: 0.614
ENSG00000053524, up-regulated list
  log2FoldChange MCF2L2: 0.71
ENSG00000058335, up-regulated list
  log2FoldChange RASGRF1: 1.152
ENSG00000060762, up-regulated list
  log2FoldChange MPC1: 0.9395
ENSG00000065621, up-regulated list
  log2FoldChange GSTO2: 0.6503
ENSG00000070182, up-regulated list
  log2FoldChange SPTB: 0.7656
ENSG00000070669, up-regulated list
  log2FoldChange ASNS: 0.7766
ENSG00000072041, up-regulated list
  log2FoldChange SLC6A15: 0.8053
ENSG00000073711, up-regulated list
  log2FoldChange PPP2R3A: 0.6253
ENSG00000075618, up-regulated list
  log2FoldChange FSCN1: 0.7766
ENSG00000076513, up-regulated list
  log2FoldChange ANKRD13A: 0.723
ENSG00000080166, up-regulated list
  log2FoldChange DCT: 0.9874
ENSG00000081923, up-regulated list
  log2FoldChange ATP8B1: 0.9522
ENSG00000082497, up-regulated list
  log2FoldChange SERTAD4: 0.7371
ENSG00000085563, up-regulated list
  log2FoldChange ABCB1: 0.7955
ENSG00000086696, up-regulated list
  log2FoldChange HSD17B2: 0.6195
ENSG00000086730, up-regulated list
  log2FoldChange LAT2: 0.8215
ENSG00000087074, up-regulated list
  log2FoldChange PPP1R15A: 0.8007
ENSG00000090382, up-regulated list
  log2FoldChange LYZ: 0.9901
ENSG00000095203, up-regulated list
  log2FoldChange EPB41L4B: 1.165
ENSG00000095383, up-regulated list
  log2FoldChange TBC1D2: 0.7709
ENSG00000095752, up-regulated list
  log2FoldChange IL11: 1.064
ENSG00000096696, up-regulated list
  log2FoldChange DSP: 0.6307
ENSG00000099812, up-regulated list
  log2FoldChange MISP: 1.058
ENSG00000099834, up-regulated list
  log2FoldChange CDHR5: 0.8144
ENSG00000100031, up-regulated list
  log2FoldChange GGT1: 0.8806
ENSG00000100385, up-regulated list
  log2FoldChange IL2RB: 0.8537
ENSG00000100867, up-regulated list
  log2FoldChange DHRS2: 0.8953
ENSG00000100994, up-regulated list
  log2FoldChange PYGB: 0.8557
ENSG00000101187, up-regulated list
  log2FoldChange SLCO4A1: 1.202
ENSG00000101680, up-regulated list
  log2FoldChange LAMA1: 0.7271
ENSG00000102003, up-regulated list
  log2FoldChange SYP: 1.211
ENSG00000103154, up-regulated list
  log2FoldChange NECAB2: 0.9871
ENSG00000104419, up-regulated list
  log2FoldChange NDRG1: 0.6175
ENSG00000104907, up-regulated list
  log2FoldChange TRMT1: 0.655
